# Legend:
# GSK3β (H350L) = GSK3β (H350L) (Homo sapiens (Human), UniProt P49841); settings: read-out: GSK3β Ki
# Method: The assay was initiated with the addition of ATP, following 15 minutes pre-incubation of enzyme and inhibitor at room temperature in the reaction mixture. The reaction was stopped after 30 minutes at room temperature by the addition of 50 μL of 80 mM EDTA.
# [1] = biological target: CDK2/Cyclin E1 full length (Homo sapiens (Human), UniProt P24941); assay: CDK2/Cyclin E1 full length mobility shift assay; format: biochemical
# Method: Cdk2/Cyclin E1 Full Length Mobility Shift Assay
# Wild-type CDK2/wild-type full length Cyclin E1 enzyme complex was produced in-house (baculoviral expression, LJIC-2080/LJIC-2103) and phosphorylated by CDK7/Cyclin H1/Matl enzyme complex with CDK2:CDK7 ratio of 50:1 (concentration mg/mL) in the presence of 10 mM MgCl2 and 5 mM ATP at room temperature for one hour. […] The assay was initiated with the addition of ATP, following a fifteen minutes pre-incubation of enzyme and inhibitor at room temperature in the reaction mixture. The reaction was stopped after 45 minutes at room temperature by the addition of 50 μL of 80 mM EDTA.
# GSK3β (H350L), sequence (P49841 whole entry, stated change not applied): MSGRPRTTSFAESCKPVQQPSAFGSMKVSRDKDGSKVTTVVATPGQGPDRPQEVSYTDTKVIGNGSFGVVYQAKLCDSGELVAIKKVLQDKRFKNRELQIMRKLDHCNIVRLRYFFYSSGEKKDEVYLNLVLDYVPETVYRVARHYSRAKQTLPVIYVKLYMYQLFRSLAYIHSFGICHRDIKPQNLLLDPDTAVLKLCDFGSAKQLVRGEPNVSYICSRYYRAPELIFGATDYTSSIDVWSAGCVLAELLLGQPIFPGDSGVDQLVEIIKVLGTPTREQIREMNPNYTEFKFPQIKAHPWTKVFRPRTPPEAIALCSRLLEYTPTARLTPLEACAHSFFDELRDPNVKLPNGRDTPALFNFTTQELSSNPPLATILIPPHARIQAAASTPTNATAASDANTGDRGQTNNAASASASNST
SMILES,Ki (GSK3β (H350L)) [nM],Ki [1] [nM]
"CC[C@H](C)NC(=O)O[C@@H]1CC[C@H](c2cc(NC(=O)Cc3cnn(C)c3C)n[nH]2)C1 [Example 337, (1R,3S)-3-(3-{[(1,5-dimethyl-1H-pyrazol-4-yl)acetyl]amino}-1H-pyrazol-5-yl)cyclopentyl (2S)-butan-2-ylcarbamate]",94.9,0.58
"CC[C@H](C)NC(=O)O[C@@H]1CC[C@H](c2cc(NC(=O)Cc3cccc4c3CN(C)C4=O)n[nH]2)C1 [Example 361, (1R,3S)-3-(3-{[(2-methyl-1-oxo-2,3-dihydro-1H-isoindol-4-yl)acetyl]amino}-1H-pyrazol-5-yl)cyclopentyl (2S)-butan-2-ylcarbamate]",25.6,0.94
"Cc1cnc(CC(=O)Nc2cc([C@H]3CC[C@@H](OC(=O)NCCC(F)(F)F)C3)[nH]n2)o1 [Example 218, (1R,3S)-3-(3-{[(5-methyl-1,3-oxazol-2-yl)acetyl]amino}-1H-pyrazol-5-yl)cyclopentyl (3,3,3-trifluoropropyl)carbamate]",30.6,2.09
"Cc1cnc(CC(=O)Nc2cc([C@H]3CC[C@@H](OC(=O)N4CCC4(C)C)C3)[nH]n2)cn1 [Example 601, (1R,3S)-3-(3-{[(5-methylpyrazin-2-yl)acetyl]amino}-1H-pyrazol-5-yl)cyclopentyl 2,2-dimethylazetidine-1-carboxylate]",7.32,0.39
"CC(C)(C)NC(=O)O[C@@H]1CC[C@H](c2cc(NC(=O)Cc3ccon3)n[nH]2)C1 [Example 17, (1R,3S)-3-{3-[(1,2-oxazol-3-ylacetyl)amino]-1H-pyrazol-5-yl}cyclopentyl tert-butylcarbamate]",65.8,0.33
"COc1ccc(CC(=O)Nc2cc([C@@H]3CC[C@H](OC(=O)NC4CCOCC4)C3)[nH]n2)cc1 [Example 501, (1S,3R)-3-(3-{[(4-methoxyphenyl)acetyl]amino}-1H-pyrazol-5-yl)cyclopentyl tetrahydro-2H-pyran-4-ylcarbamate]",12.5,1.43
"COCCn1nccc1C(=O)Nc1cc([C@H]2CC[C@@H](OC(=O)N3CC[C@@H]3C)C2)[nH]n1 [Example 594, (1R,3S)-3-[3-({[1-(2-methoxyethyl)-1H-pyrazol-5-yl]carbonyl}amino)-1H-pyrazol-5-yl]cyclopentyl (2S)-2-methylazetidine-1-carboxylate]",14.3,0.62
CC1(C)CCCN1C(=O)O[C@@H]1CC[C@H](c2cc(NC(=O)Cc3cnc4ncnn4c3)n[nH]2)C1 [Example 137],6.07,0.09
"CC(C)NC(=O)O[C@H]1CC[C@@H](c2cc(NC(=O)Cc3cnn(C)c3)n[nH]2)C1 [Example 266, (1S,3R)-3-(3-{[(1-methyl-1H-pyrazol-4-yl)acetyl]amino}-1H-pyrazol-5-yl)cyclopentyl propan-2-ylcarbamate]",32.6,0.39
"Cc1cnc(CC(=O)Nc2cc([C@H]3CC[C@@H](OC(=O)N4[C@@H](C)C[C@@H]4C)C3)[nH]n2)o1 [Example 606, (1R,3S)-3-(3-{[(5-methyl-1,3-oxazol-2-yl)acetyl]amino}-1H-pyrazol-5-yl)cyclopentyl (2S,4S)-2,4-dimethylazetidine-1-carboxylate]",11.5,0.63
"CC(C)(C)NC(=O)O[C@@H]1CC[C@H](c2cc(NC(=O)Cc3cc(C(F)F)ccn3)n[nH]2)C1 [Example 314, (1R,3S)-3-[3-({[4-(difluoromethyl)pyridin-2-yl]acetyl}amino)-1H-pyrazol-5-yl]cyclopentyl tert-butylcarbamate]",40.6,0.41
"CC[C@H](C)NC(=O)O[C@@H]1CC[C@H](c2cc(NC(=O)c3cc(COC)nn3C)n[nH]2)C1 [Example 14, (1R,3S)-3-[3-({[3-(methoxymethyl)-1-methyl-1H-pyrazol-5-yl]carbonyl}amino)-1H-pyrazol-5-yl]cyclopentyl (2S)-butan-2-ylcarbamate]",294,0.27
"C[C@H]1C[C@H](C)N1C(=O)O[C@@H]1CC[C@H](c2cc(NC(=O)Cc3cnn(C)c3)n[nH]2)C1 [Example 605, (1R,3S)-3-(3-{[(1-methyl-1H-pyrazol-4-yl)acetyl]amino}-1H-pyrazol-5-yl)cyclopentyl (2S,4S)-2,4-dimethylazetidine-1-carboxylate]",9.89,0.32
"CC[C@H](C)NC(=O)O[C@@H]1CC[C@H](c2cc(NC(=O)Cc3cccc(C)c3S(C)(=O)=O)n[nH]2)C1 [Example 372, (1R,3S)-3-[3-({[3-methyl-2-(methylsulfonyl)phenyl]acetyl}amino)-1H-pyrazol-5-yl]cyclopentyl (2S)-butan-2-ylcarbamate]",115,0.85
"COc1ccc(CC(=O)Nc2cc([C@H]3CC[C@@H](OC(=O)NCC(F)F)C3)[nH]n2)cn1 [Example 252, (1R,3S)-3-(3-{[(6-methoxypyridin-3-yl)acetyl]amino}-1H-pyrazol-5-yl)cyclopentyl (2,2-difluoroethyl)carbamate]",10.6,1.39
"Cc1ccc(CC(=O)Nc2cc([C@@H]3CC[C@H](OC(=O)N[C@H]4CC[C@@H](O)CC4)C3)[nH]n2)cn1 [Example 545, (1S,3R)-3-(3-{[(6-methylpyridin-3-yl)acetyl]amino}-1H-pyrazol-5-yl)cyclopentyl (cis-4-hydroxycyclohexyl)carbamate]",2.2,0.39

# The remaining lines, values ahead:
Ki (GSK3β (H350L)) [nM],Ki [1] [nM],SMILES
4.97,0.45,"COc1cc(CC(=O)Nc2cc([C@H]3CC[C@@H](OC(=O)N4C[C@@](C)(O)[C@@H]4C)C3)[nH]n2)ccn1 [Example 625, (1R,3S)-3-(3-{[(2-methoxypyridin-4-yl)acetyl]amino}-1H-pyrazol-5-yl)cyclopentyl (2S,3R)-3-hydroxy-2,3-dimethylazetidine-1-carboxylate]"
133,0.65,"COc1cc(CC(=O)Nc2cc([C@H]3CC[C@@H](OC(=O)NC(C)(C)C)C3)[nH]n2)c(OC)cn1 [Example 315, (1R,3S)-3-(3-{[(2,5-dimethoxypyridin-4-yl)acetyl]amino}-1H-pyrazol-5-yl)cyclopentyl tert-butylcarbamate]"
21.3,0.17,CC[C@H](C)NC(=O)O[C@@H]1CC[C@H](c2cc(NC(=O)Cc3cncs3)n[nH]2)C1 [Example 36]
13.9,1.67,"COc1cc(CC(=O)Nc2cc([C@@H]3CC[C@H](OC(=O)N4C[C@H](O)[C@H]4C)C3)[nH]n2)ccn1 [Example 611, (1S,3R)-3-(3-{[(2-methoxypyridin-4-yl)acetyl]amino}-1H-pyrazol-5-yl)cyclopentyl (2R,3S)-3-hydroxy-2-methylazetidine-1-carboxylate]"
> 95.3,1.35,"CCCNC(=O)O[C@H]1CC[C@@H](c2cc(NC(=O)c3ccnc(OC)c3)n[nH]2)C1 [Example 184, (1S,3R)-3-(3-{[(2-methoxypyridin-4-yl)carbonyl]amino}-1H-pyrazol-5-yl)cyclopentyl propylcarbamate]"
10.2,0.11,CC[C@H](C)NC(=O)O[C@@H]1CC[C@H](c2cc(NC(=O)Cc3ccc4nc(C)cn4n3)n[nH]2)C1 [Example 47]
> 191,0.23,CCCNC(=O)O[C@H]1CC[C@@H](c2cc(NC(=O)Cc3cnc(C)s3)n[nH]2)C1 [Example 22]
5.23,0.64,"CCN(C)C(=O)O[C@@H]1CC[C@H](c2cc(NC(=O)Cc3ccc(C)nc3)n[nH]2)C1 [Example 237, (1R,3S)-3-(3-{[(6-methylpyridin-3-yl)acetyl]amino}-1H-pyrazol-5-yl)cyclopentyl ethyl(methyl)carbamate]"
772,0.38,COCc1cc(C(=O)Nc2cc([C@H]3CC[C@@H](OC(=O)NC(C)(C)C)C3)[nH]n2)n(C)n1 [Example 111]
10.4,0.1,CC(C)NC(=O)O[C@@H]1CC[C@H](c2cc(NC(=O)Cc3ccc4c(cnn4C)c3)n[nH]2)C1 [Example 55]
45.4,0.04,CC[C@H](C)NC(=O)O[C@@H]1CC[C@H](c2cc(NC(=O)c3ccnc4ncsc34)n[nH]2)C1 [Example 43]
> 95.3,3.68,"CCCNC(=O)O[C@@H]1CC[C@H](c2cc(NC(=O)c3ccc(OC)nc3)n[nH]2)C1 [Example 183, (1R,3S)-3-(3-{[(6-methoxypyridin-3-yl)carbonyl]amino}-1H-pyrazol-5-yl)cyclopentyl propylcarbamate]"
9.86,0.21,COc1cc(CC(=O)Nc2cc([C@H]3CC[C@@H](OC(=O)N(C)C(C)C)C3)[nH]n2)ccn1 [Example 58]
44.7,0.72,"CCCNC(=O)O[C@@H]1CC[C@H](c2cc(NC(=O)c3ccnn3C)n[nH]2)C1 [Example 164, (1R,3S)-3-(3-{[(1-methyl-1H-pyrazol-5-yl)carbonyl]amino}-1H-pyrazol-5-yl)cyclopentyl propylcarbamate]"
90.6,0.82,"CCCNC(=O)O[C@H]1CC[C@@H](c2cc(NC(=O)c3ccc(OC)nc3)n[nH]2)C1 [Example 182, (1S,3R)-3-(3-{[(6-methoxypyridin-3-yl)carbonyl]amino}-1H-pyrazol-5-yl)cyclopentyl propylcarbamate]"
> 47.6,1.37,COCc1cc(C(=O)Nc2cc([C@H]3CC[C@@H](OC(=O)NCCC(F)(F)F)C3)[nH]n2)n(C)n1 [Example 103]
43.4,0.85,"CCNC(=O)O[C@@H]1CC[C@H](c2cc(NC(=O)Cc3cc(F)cc(F)c3)n[nH]2)C1 [Example 233, (1R,3S)-3-(3-{[(3,5-difluorophenyl)acetyl]amino}-1H-pyrazol-5-yl)cyclopentyl ethylcarbamate]"
> 191,0.63,"CC[C@H](C)NC(=O)O[C@@H]1CC[C@H](c2cc(NC(=O)c3cncn3C)n[nH]2)C1 [Example 321, (1R,3S)-3-(3-{[(1-methyl-1H-imidazol-5-yl)carbonyl]amino}-1H-pyrazol-5-yl)cyclopentyl (2S)-butan-2-ylcarbamate]"

# Reference: patent US11014911B2, “CDK2 inhibitors” (Pfizer Inc., priority 2019, dated 2021)
